Patent US6911454B1, “Method for potentiating primary drugs in treating multidrug resistant disease” (priority 1989, dated 2005)
Read-outs that look alike come from different tables or passages of the source.

Key:
DX20 cancer cells = test: modified MTT assay, drug sensitivity of DX20 cells; format: cell-based, human; settings: DX20 cells
From the text: The MES-SA/DX20 cell line was established according to the development methods of Sikic et al., Resistance to Antineoplastic Drugs, Chap. 3, CRC Press, Ed. David Kessel, pp. 37-47 (1989). In vitro drug sensitivity testing consisted of two assay models, the modified MTT assay (Mossman, J. Immunolog. Methods, Vol. 65, pp. 55-63, 1983) and the colonogenic assay. In addition to this, the combinations were investigated in vivo in nude mice bearing the DX20 cell line. The MTT assay was chosen because of its practical advantages in large-scale screening. The assay involved cellular conversion of tetrazolium salt to a colored formazan serving as a measurement of cell viability.
In a given experiment, culture media, 50 microliters, containing 8,000-25,000 cells, depending on the proliferation rate of the cell line, was pipetted into each well of several 96-well microtiter plates. The cells were allowed to attach overnight. […] The cytotoxic drug, also at a concentration below that previously established as an IC50, was then added at decreasing concentrations by 25% to several half plate sections. The cells were allowed to grown for 72 hours. 100 microliters of media was then removed and 25 microliters of 5 mg/ml MTT (Sigma, St. Louis, Mo.) in phosphate buffered saline was added to each well. The plates were kept in an incubator at 37° C. and 5% CO2. After 2-3 hours of incubation, the extraction buffer containing 20% w/v SDS and 50% DMF was added and the plates again incubated overnight. The plates were read at a test wavelength of 570 nm on a multiwell spectrophotometer (Model MR 700, Dynatech Laboratories, Alexandria, Va.). Each drug combination was tested in triplicate. Percent survival was defined as percent of optical density (OD) of the drug-treated wells to that of the control detected by the spectrophotometer.
The in vitro drug sensitivity testing of ethyl fangchinoline consisted of two assay models, the modified MTT (Mossman 1983) and a colony formation assay in which a direct measure was taken by quantitation of colony formation. The MTT assay was chosen because of its practical advantages in large scale screening. The assay involves cellular conversion of tetrozolium salt to a colored formazan serving as a measurement of cell viability.
Two human cell lines were chosen as the primary targets of study in reversing multiple-drug resistance. The MES-SA, a sarcoma, and its resistant subline, DX-20, were kindly donated by Dr. B. Sikic (U of Stanford, Stanford, Calif.). The A2780, an ovarian cancer, and its resistant subline, A2780-ad10, were provided by Roswell Park Memorial Inst. (Buffalo, N.Y.).
Culture media, 50 ul containing 8,000 to 25,000 cells depending on the proliferation rate of the line, was pipetted into each of 96 wells in a flat bottom tissue plate. The cells were incubated overnight to allow adherence. One hundred ul of ethyl fangchinoline, at a concentration below that previously established as an independent IC50, was added to each experimental well. […] The plates were then incubated for 72 hours before MTT was added and the analysis of O.D. values interpreted by a multi-plate scanner (MR700, Dynatech).

[1] = tested on: CQ-sensitive (FCMSU1/Sudan) strain of P. falciparum; test: 3H-adenosine incorporation, chloroquine-sensitive P. falciparum; format: cell-based
Procedure: (§1) Chloroquine and qinghaosu are commonly used antimalarial drugs.
(§2) The dose (IC50) of each drug or each drug combination required to effect a 50% inhibition in the malarial activity of each strain was determined by establishing a dose response curve for each.
(§3) FCMSU1/Sudan strain and cloned Indochina (W-2) strain of P. falciparum were used. […] The two strains of the parasite were cultured according to the candle jar method of Trager and Jensen, Science, Vol. 193, pages 673-675 (1976). In a given experiment, four-day-old Petri dish cultures (approximately 10% parasitemia) were diluted with medium containing an amount of noninfected type A human erythrocytes to obtain a culture with a final hematocrit of 1.5% and parasitemia of 0.5-1.0%. The resulting culture was ready for addition to microtitration plates with ninety-six flat-bottom wells.
(§4) The testing procedure used was similar to that described by Desjardins et al. in “Antimicrobial Agents and Chemotherapy,” Vol. 16, pages 710-718 (1979). […] 25 microliters radioactive (0.5 microCi) [2,8-^3H] adenosine. The microtitration plates were incubated in a candle jar for an additional 18 hours, at 37° C.
(§5) As the malaria parasite grows ^3H-adenosine is metabolized and incorporates into polymeric RNA and DNA. The labeled polymers are trapped on glass fiber filters and unincorporated material is washed away. In the absence of drug there is 100% incorporation of the labeled material. When drugs interfere (directly or indirectly), an inhibitory dose of 50% (IC50) can be calculated. The experiments were repeated three times except where noted. Statistical analysis was done using Student's T-test for significance. Van Kyke et al. “Exp. Parasitol,” Vol. 64, pages 418-423 (1987).
(§6) The test procedure was basically the same as outlined above.

[2] = tested on: CQ-resistant (W-2) strain of P. falciparum; test: 3H-adenosine incorporation, chloroquine-resistant P. falciparum; format: cell-based; settings: for Ratio (S/R): IC50 against sensitive strain divided by IC50 for resistant strain
Procedure: as §1, §2, §3, §4, §5, §6

DX20 tumor = test: tumor measurements in nude mice bearing the DX20 tumor; format: in vivo; parameters: unit not given here
Procedure: (See FIG. 6). Tumor size was calculated using the formula (4 Pi/3) X*Y*2Z.
The study was done with 3-4 week old male balb-C nude mice. The animals were injected with DX20 1×10^7 cells.

[3] = tested on: multidrug resistant human cancer (DX20); format: in vivo, mice; settings: d-tetrandrine 0.5, 1, 1.5 mg injections; doxorubicin 5.5 mg per kg; about one month
Procedure: It is only important that they be administered sufficiently close together that the cancer is exposed to both simultaneously. For example, nude mice infected with a multidrug resistant human cancer were given 0.5 mg, 1 mg and 1.5 mg respectively in three separate injections, 72 hours apart.

[4] = tested on: resistant (K562-R7) cancel cells; test: doxorubicin fluorescence test by flow cytometry; format: cell-based; settings: FIG. 12; doxorubicin used alone
[5] = Plasmodium falciparum, read-out: IC50 DRUG COMBINATION TT(1.0 uM) CQ(0.3 uM)
[6] = Plasmodium falciparum, read-out: IC50 DRUG COMBINATION TT(2.0 uM) CQ(0.2 uM)
[7] = Plasmodium falciparum, read-out: IC50 DRUG COMBINATION TT(3.0 uM) CQ(0.1 uM)
[8] = Plasmodium falciparum, read-out: IC50 SINGLE DRUG
[9] = Table VII, chloroquine-sensitive strain, drug alone, read-out: IC50 S
[10] = Table VII, chloroquine-resistant strain, drug alone, read-out: IC50 R
[11] = Plasmodium falciparum, read-out: IC50 S
[12] = Plasmodium falciparum, read-out: IC50 R
[13] = Day 7 Prior to Treatment (baseline)
[14] = Day 24 After Treatment, d-tetrandrine days 6, 8, 10, doxorubicin 5.5 mg/kg day 12

Compound: ethyl fangchinoline
- IC50 (DX20 cancer cells; single agent, read-out: IC50 alone): 6500 nM

Compound: CCN(CC)CCCC(C)Nc1ccnc2cc(Cl)ccc12 (stereo not shown) [CQ, chloroquine]
- IC50 [1, 5]: 16.5 ± 2.1 nM
- IC50 [1, 6]: 11.4 ± 2.3 nM
- IC50 [1, 7]: 7.4 ± 1.3 nM
- IC50 [1, 8]: 26.7 ± 3.8 nM
- lowering of the IC50 of chloroquine ([2]; 3.0 micromolar d-tetrandrine added to 0.1 micromolar chloroquine): 43 Fold
- IC50 [2, 5]: 23.8 ± 4.1 nM
- IC50 [2, 6]: 8 ± 1.6 nM
- IC50 [2, 7]: 4.2 ± 0.3 nM
- IC50 [2, 8]: 186 ± 4.9 nM

Compound: COc1ccc2cc1Oc1ccc(cc1)C[C@@H]1c3cc(c(OC)cc3CCN1C)Oc1c(OC)c(OC)cc3c1[C@H](C2)N(C)CC3 [IT, isotetrandrine]
- IC50 [1, 9]: 480 nM
- IC50 [2, 10]: 140 nM

Compound: COc1cc2c3cc1Oc1c(O)c(OC)cc4c1[C@@H](Cc1ccc(O)c(c1)Oc1ccc(cc1)C[C@@H]3N(C)CC2)N(C)CC4 [OB, obamegine]
- IC50 [1, 9]: 660 nM
- Ratio (S/R) [2]: 1.5
- IC50 [2, 10]: 480 nM

Compound: COc1cc(C[C@H]2c3cc(OC)c(OC)cc3CCN2C)c(Oc2cc3c(cc2OC)-c2c(OC)c(OC)cc4c2[C@H](C3)N(C)CC4)cc1OC [TH, thalicarpine]
- IC50 ([1]; Plasmodium falciparum, Table VII, chloroquine-sensitive strain, drug alone, read-out: IC50 S): 1700 nM
- Ratio (S/R) [2]: 1.3
- IC50 ([2]; Plasmodium falciparum, Table VII, chloroquine-resistant strain, drug alone, read-out: IC50 R): 1300 nM

Compound: COc1ccc2cc1Oc1ccc(cc1)C[C@H]1c3cc(c(OC)cc3CCN1C)Oc1c(O)c(OC)cc3c1[C@H](C2)N(C)CC3 [TA, fangchinoline]
- IC50 [1, 9]: 260 nM
- Ratio (S/R) [2]: 1.2
- IC50 [2, 10]: 220 nM

Compound: COc1cc2c3cc1Oc1c(OC)c(OC)cc4c1[C@@H](Cc1ccc(O)c(c1)Oc1ccc(cc1)C[C@H]3N(C)CC2)N(C)CC4 [PY, pycnamine]
- IC50 [1, 9]: 380 nM
- Ratio (S/R) [2]: 0.9
- IC50 [2, 10]: 420 nM

Compound: cycleanine
- IC50 [1, 9]: 3200 nM
- Ratio (S/R) [2]: 0.8
- IC50 [2, 10]: 4200 nM

Compound: COc1cc2c3cc1Oc1c(OC)c(OC)cc4c1[C@@H](Cc1ccc(O)c(c1)Oc1ccc(cc1)C[C@@H]3N(C)CC2)N(C)CC4 [BB, berbamine]
- IC50 [1, 9]: 460 nM
- Ratio (S/R) [2]: 2.7
- IC50 [2, 10]: 190 nM

Compound: COc1ccc2cc1Oc1ccc(cc1)C[C@H]1c3c(cc4c(c3Oc3cc5c(cc3OC)CCN(C)[C@@H]5C2)OCO4)CCN1C [CE, cepharanthine]
- IC50 [1, 11]: 1000 nM
- Ratio (S/R) [2]: 1.1
- IC50 [2, 12]: 940 nM

Compound: COc1ccc2cc1Oc1ccc(cc1)C[C@H]1c3cc(c(OC)cc3CCN1C)Oc1c(OC)c(OC)c(OC)c3c1[C@H](C2)N(C)CC3 [HE, hernandezine]
- IC50 [1, 9]: 370 nM
- Ratio (S/R) [2]: 2.8
- IC50 [2, 10]: 130 nM

Compound: COc1cccc2c1C(=O)c1c(O)c3c(c(O)c1C2=O)C[C@@](O)(C(=O)CO)C[C@@H]3O[C@H]1C[C@H](N)[C@H](O)[C@H](C)O1 [doxorubicin]
- IC50 (DX20 cancer cells; Homo sapiens, d-tetrandrine 2 × 10^−7 molar, read-out: IC50 doxorubicin in d-tetrandrine): 660 nM
- IC50 (DX20 cancer cells; Homo sapiens, d-tetrandrine 4 × 10^−7 molar, read-out: IC50 doxorubicin in d-tetrandrine): 360 nM
- IC50 (DX20 cancer cells; Homo sapiens, ethyl fangchinoline 1 × 10^−6 molar, read-out: IC50 doxorubicin in ethyl fangchinoline): 480 nM
- IC50 (DX20 cancer cells; Homo sapiens, ethyl fangchinoline 2 × 10^−7 molar, read-out: IC50 doxorubicin in ethyl fangchinoline): 470 nM
- IC50 (DX20 cancer cells; Homo sapiens, ethyl fangchinoline 4 × 10^−7 molar, read-out: IC50 doxorubicin in ethyl fangchinoline): 160 nM
- IC50 (DX20 cancer cells; Homo sapiens, single agent, read-out: IC50 alone): 5400 nM
- Tumor Measurements Depth (DX20 tumor; [13]): 1.25
- Tumor Measurements Length (DX20 tumor; [13]): 3.50
- Tumor Measurements Width (DX20 tumor; [13]): 3.87
- Tumor Measurements Depth (DX20 tumor; [14]): 21.50
- Tumor Measurements Length (DX20 tumor; [14]): 24.50
- Tumor Measurements Width (DX20 tumor; [14]): 19.10
- tumor outcome [3]: very large tumors which were unabated
- doxorubicin concentration (fluorescence) in resistant versus sensitive cells [4]: lower concentration of doxorubicin than does a sensitive cancer

Compound: COc1ccc2cc1Oc1ccc(cc1)C[C@@H]1c3cc(c(OC)cc3CCN1C)Oc1c(OC)c(OC)cc3c1[C@@H](C2)N(C)CC3 [PH, phacanthine]
- IC50 [1, 9]: 600 nM
- IC50 [2, 10]: 500 nM

Compound: C[C@@H]1CC[C@H]2[C@@H](C)C(=O)O[C@@H]3O[C@@]4(C)CC[C@@H]1[C@]32OO4 [QHS, qinghaosu]
- IC50 ([1]; S STRAIN, TT/QHS 10:1, mean ± S.D, read-out: IC50 DRUG COMBINATION TT(2.0 uM) QHS(0.2 uM)): 11.4 ± 0.6 nM
- IC50 ([1]; Table IV, S STRAIN, mean ± S.D, read-out: IC50 SINGLE DRUG): 36.7 ± 4.7 nM
- IC50 ([1]; read-out: IC50 DRUG COMBINATION TT(1.0 uM) QHS(0.3 uM), S STRAIN, TT/QHS 10:3, mean ± S.D): 21.6 ± 2.7 nM
- IC50 ([1]; read-out: IC50 DRUG COMBINATION TT(3.0 uM) QHS(0.1 uM), S STRAIN, TT/QHS 30:1, mean ± S.D): 7.3 ± 1.2 nM
- IC50 ([2]; R STRAIN, TT/QHS 10:1, mean ± S.D, read-out: IC50 DRUG COMBINATION TT(2.0 uM) QHS(0.2 uM)): 7.2 ± 1.4 nM
- IC50 ([2]; Table IV, R STRAIN, mean ± S.D, read-out: IC50 SINGLE DRUG): 47.8 ± 14.5 nM
- IC50 ([2]; read-out: IC50 DRUG COMBINATION TT(1.0 uM) QHS(0.3 uM), R STRAIN, TT/QHS 10:3, mean ± S.D): 17.9 ± 4.1 nM
- IC50 ([2]; read-out: IC50 DRUG COMBINATION TT(3.0 uM) QHS(0.1 uM), R STRAIN, TT/QHS 30:1, mean ± S.D): 4.6 ± 1.4 nM

Compound: COc1cc(C[C@H]2c3cc(OC)c(OC)c(OC)c3CCN2C)c(Oc2cc3c(cc2OC)-c2c(OC)c(OC)c(OC)c4c2[C@H](C3)N(C)CC4)cc1OC [ME, methoxadiantifoline]
- IC50 [1, 11]: 5300 nM
- Ratio (S/R) [2]: 5.5
- IC50 [2, 12]: 970 nM
- effectiveness against resistant versus sensitive malarial strain ([2]; conclusion from Table VII): substantially more effective against the chloroquine resistant malarial strain than against the chloroquine sensitive malarial strain
